Series [1] in a line: visual solubility test (apparent solubility in different excipients). It counts as physicochemical. The note with it: for solubility: thermodynamic from solid. How it is done:
Subsequently in order to analyze the solubility of the anilinopyrimidine of Formula (I) and to identify the preferred excipients, ten solutions of batch FD050007 and ten solution of the starting batch 61569-02 were prepared and analized with a visual solubility test.
A data summary for the anilinopyrimidine derivative of Formula (I) apparent solubility in different excipients is given in Table 2.

The subject of series [2] is primary fresh cells from Acute Myeloid Leukemia (AML) patients. Conditions: most primary fresh cells from AML patients; cited from earlier work.
The mark [3] stands for this setting: in Cremophor EL (castor oil-ethylene oxide).
The mark [4] stands for this setting: in Labrafil M1944CS (oleoyl macrogol glyceride).

≈ marks a conversion by molar mass, not a printed value.

As a reminder, the solubility is how much of the substance goes into solution per volume. For the molecule `CC(=O)N1CCN(C(=O)c2ccc(Nc3nccc(-c4ccc(Cl)cc4)n3)cc2)CC1` [FD050007, 1-(4{4-[4-(4-Chloro-phenyl)-pyrimidin-2-ylamino]-benzoyl}-piperazin-1-yl)-ethanone], the solubility was determined as 5.75 mg/mL (≈ 13.2 mM) in series [1] (HP-β-CD, aqueous with cosolvent or surfactant or cyclodextrin, in HP-β-CD); 26.3 mg/mL (≈ 60.3 mM) in series [1] (Labrasol (caprylocapryoyl macrogol glyceride), oil or lipid, in Labrasol (caprylocapryoyl macrogol glyceride)); 26.2 mg/mL (≈ 60.1 mM) in series [1] (Transcutol HP, organic solvent or mixture, in Transcutol HP). In addition, the apparent solubility in series [1] (in Capmul GMO-50) is 19.6 mg/mL; in series [1] (in Capmul MCM C10 (glyceril monocaprate)), 54 mg/mL; in series [1] (in Capmul MCM-Lutrol E600 1:1), 115 mg/mL; in series [1] (setting [3]) it was “Suspension”; in series [1] (setting [4]), “Suspension”; in series [1] (in Lutrol E600 (PEG 600)), 115 mg/mL. Moreover, the apparent solubility entry in series [1] (in Vitamin E TPGS) is reported as “Solid”.
On to `CC(=O)N1CCN(C(=O)c2ccc(Nc3nccc(-c4ccc(Cl)cc4)n3)cc2)CC1` [Formula 61569-02, 1-(4{4-[4-(4-Chloro-phenyl)-pyrimidin-2-ylamino]-benzoyl}-piperazin-1-yl)-ethanone], for which the solubility was 20.2 mg/mL in series [1] (Capmul GMO-50, oil or lipid, in Capmul GMO-50); 59.5 mg/mL in series [1] (Capmul MCM C10 (glyceril monocaprate), oil or lipid, in Capmul MCM C10 (glyceril monocaprate)); 115 mg/mL in series [1] (Capmul MCM-Lutrol E600 1:1, organic solvent or mixture, in Capmul MCM-Lutrol E600 1:1); 104 mg/mL in series [1] (Lutrol E600 (PEG 600), organic solvent or mixture, in Lutrol E600 (PEG 600)). The apparent solubility entry is reported as “Suspension” in series [1] (setting [3]); “Suspension” in series [1] (setting [4]); “Suspension” in series [1] (in Labrasol (caprylocapryoyl macrogol glyceride)); “Suspension” in series [1] (in Transcutol HP); “Solid” in series [1] (in Vitamin E TPGS).
For the molecule `CC(=O)N1CCN(C(=O)c2ccc(Nc3nccc(-c4ccc(Cl)cc4)n3)cc2)CC1` [Formula (I), 1-(4{4-[4-(4-Chloro-phenyl)-pyrimidin-2-ylamino]-benzoyl}-piperazin-1-yl)-ethanone], in series [1] (in particular in Capmul MCM C10, Lutrol E600 and Capmul MCM-Lutrol E600 1:1), the “solubility, milled versus starting batch” value is given as “better solubility when milled”. In addition, in series [2], the cell death entry is on record as “induces cell death”.

(Values after patent US8277839B2, “Oral pharmaceutical composition of anilinopyrimidine, preparation and use thereof” (Ares Trading S.A., priority 2006, dated 2012).)
